Results on 24 molecules are retold here after patent US9675694B2, “Polycyclic agents for the treatment of respiratory syncytial virus infections” (Biota Scientific Management Pty Ltd., priority 2006, dated 2017).

As a reminder, the EC50 is the midpoint of the concentration-response curve.

In the experiment the test system is RSV A2. Description: RSV antiviral cytopathic effect (CPE) assay, MTT readout. To be noted: human respiratory syncytial virus, HEp-2, 120 h; HEp2 cells infected with RSV A2, moi ~0.01, 5 days; compounds of Table 2; read-out: Activity Range (EC50, RSV A2 antiviral). The experiment is classed as cell-based. As to the method: Biological Data Method P: RSV Antiviral Assay Protocol
Compounds of the invention were tested for their antiviral activity against respiratory syncytial virus. Cytopathic effect (CPE) assays were performed essentially as described in the literature (see for example Watanabe et al, 1994, J. Virological Methods, 48:257). Serial dilutions of the test compounds were made in 96 well plates. HEp2 cells (1.0×10^4 cells/well) were infected with RSV at a low multiplicity of infection (e.g. RSV A2 at an moi of ˜0.01) and added to plates to assess antiviral activity. Uninfected HEp2 cells were used to assess compound cytotoxicity. Assays were incubated for 5 days at 37° C. in a 5% CO2 atmosphere. The extent of CPE was determined via metabolism of the vital dye 3-(4, 5-dimethylthiaxol-2-yl)-2,5-diphenyltetrazolium bromide (MTT). MTT (1 mg/ml) was added to each well and plates incubated for 2 hours incubation at 37° C. Wells were aspirated, iso-propanol (200 μL) was added and absorbance values read at 540/690 nm. Compound concentrations that inhibited CPE by 50% (EC50) and developed cytotoxicity (CC50) were calculated using non-linear regression analysis.
For orientation: Cytopathic effects are the visible damage that an infection or toxin causes in cultured cells.
For the molecule `O=C(c1ccc(F)cc1)N1CCN2C(=O)c3ccccc3CC12c1ccccc1` (stereo not drawn) [Compound 1-001], the EC50 was in the range of 0.25 to 1 µM.

With `O=C(c1csc(-c2cccnc2)n1)N1CCN2C(=O)c3ccccc3CC12c1ccccc1` (stereo not drawn) [Compound 1-002], the EC50 lay in the range of 0.25 to 1 µM.

Turning to `O=C(c1cccnc1)N1CCN2C(=O)c3ccccc3CC12c1ccccc1` (stereo not drawn) [Compound 1-003], the EC50 is 0.25 to 1 µM.

With `O=C(c1ccc(F)cc1)N1CCN2C(=O)c3ccccc3CC12c1ccc(Cl)cc1` (stereo not drawn) [Compound 1-005], the EC50 was greater than 5 µM.

As for `O=C(c1ccoc1)N1CCN2C(=O)c3ccccc3CC12c1ccc(Cl)cc1` (stereo not drawn) [Compound 1-006], the EC50 was less than 0.25 µM.

Regarding `O=C(c1ccc(F)nc1)N1CCN2C(=O)c3ccccc3CC12c1ccc(Cl)cc1` (stereo not drawn) [Compound 1-007], the EC50 was in the range of 1 to 5 µM.

Consider `O=C(c1cccnc1)N1CCN2C(=O)c3ccccc3CC12c1ccc(Cl)cc1` (stereo not drawn) [Compound 1-008, 10a-(4-Chlorophenyl)-1-(pyridine-3-carbonyl)-2,3,10,10a-tetrahydro-1H-imidazo[1,2-b]isoquinolin-5-one], for which the EC50 fell in the range of 1 to 5 µM.

With `O=C(c1ccoc1)N1CCN2C(=O)c3ccncc3CC12c1ccc(Cl)cc1` (stereo not drawn) [Compound 1-010], the EC50 is 0.25 to 1 µM.

As for `O=C(c1cccnc1)N1CCN2C(=O)c3cccnc3CC12c1ccc(Cl)cc1` (stereo not drawn) [Compound 1-014], the EC50 lay in the range of 1 to 5 µM.

Consider `O=C(NCCc1ccccc1)N1CCN2C(=O)c3cccnc3CC12c1ccc(Cl)cc1` (stereo not drawn) [Compound 1-015], for which the EC50 fell in the range of 0.25 to 1 µM.

On to `O=C1c2ccccc2CC2(c3ccc(Cl)cc3)N1CCN2C(=O)c1sccc1Cl` (stereo not drawn) [Compound 1-019], for which the EC50 fell in the range of 0.25 to 1 µM.

Turning to `O=C(c1ccno1)N1CCN2C(=O)c3ccccc3CC12c1ccc(Cl)cc1` (stereo not drawn) [Compound 1-025], the EC50 lay within 1 to 5 µM.

On to `Cn1cc(C(=O)N2CCN3C(=O)c4ccccc4CC32c2ccc(Cl)cc2)c(C(F)(F)F)n1` (stereo not drawn) [Compound 1-029], for which the EC50 was in the range of 0.25 to 1 µM.

As for `O=C(c1ccoc1)N1CCN2C(=O)c3cccnc3CC12c1ccc(Cl)cc1` (stereo not drawn) [Compound 1-043], the EC50 is less than 0.25 µM.

On to `O=C(Cc1ccccn1)N1CCN2C(=O)c3ccccc3CC12c1ccc(Cl)cc1` (stereo not drawn) [Compound 1-066], for which the EC50 is 1 to 5 µM.

In the case of `COc1ccc(CC(=O)N2CCN3C(=O)c4ccccc4CC23c2ccc(Cl)cc2)cc1` (stereo not drawn) [Compound 1-069], the EC50 was in the range of 0.25 to 1 µM.

In the case of `O=C(c1ccoc1)N1CCN2C(=O)c3cccc(F)c3CC12c1ccc(Cl)cc1` (stereo not drawn) [Compound 1-071], the EC50 was less than 0.25 µM.

Turning to `O=C(c1ccc(F)cc1)N1CCN2C(=O)c3cccc(F)c3CC12c1ccc(Cl)cc1` (stereo not drawn) [Compound 1-073], the EC50 was 0.25 to 1 µM.

For `CCC(=O)N1CCN2C(=O)c3ccccc3CC12c1ccc(Cl)cc1` (stereo not drawn) [Compound 1-077], the EC50 is 1 to 5 µM.

For the molecule `O=C(CNS(=O)(=O)c1ccc(F)cc1)N1CCN2C(=O)c3ccccc3CC12c1ccc(Cl)cc1` (stereo not drawn) [Compound 1-079, N-{2-[10a-(4-Chlorophenyl)-5-oxo-2,3,10,10a-tetrahydro-5H-imidazo[1,2-b]isoquinolin-1-yl]-2-oxoethyl}-4-fluorobenzenesulfonamide], the EC50 lay in the range of 0.25 to 1 µM.

`O=C(c1cccnc1)N1CCN2C(=O)c3ccc(F)cc3CC12c1ccc(Cl)cc1` (stereo not drawn) [Compound 1-083]: the EC50 lay within 0.25 to 1 µM.

Turning to `Cn1cc(C(=O)N2CCN3C(=O)c4cccc(F)c4CC23c2ccc(Cl)cc2)c(C(F)(F)F)n1` (stereo not drawn) [Compound 1-087], the EC50 is less than 0.25 µM.

For the molecule `O=C(c1cccs1)N1CCN2C(=O)c3cccnc3CC12c1ccc(Cl)cc1` (stereo not drawn) [Compound 1-101], the EC50 is less than 0.25 µM.

Take `O=C(c1ccc(F)cc1)N1CCN2C(=O)c3ncccc3CC12c1ccc(Cl)cc1` (stereo not drawn) [Compound 1-109]: the EC50 lay in the range of 1 to 5 µM.
